IC50 data for one molecule are collected here from PMC9618446 (Biomedicine & Pharmacotherapy, 2022).

What all share (assay type): cell-based
Assay [1] concerns SARS-CoV-2 S protein variant D614G PsV. The settings on record: read-out: IC50 against SARS-CoV-2 S variant PsV D614G.
The subject of assay [2] is SARS-CoV-2 S protein variant N501Y PsV. Conditions: read-out: IC50 against SARS-CoV-2 S variant PsV N501Y.
In assay [3] the test system is SARS-CoV-2 S protein variant P681H PsV. The settings on record: read-out: IC50 against SARS-CoV-2 S variant PsV P681H.

One may read the IC50 as the concentration that inhibits the measured activity by half.

`COc1c(O)cc2oc(-c3ccccc3)cc(=O)c2c1O` [OA, Oroxylin A]: the IC50 came to 18.1 ± 0.67 µM in assay [1], 13.6 ± 1.24 µM in assay [2] and 19.6 ± 2.39 µM in assay [3].
